Data reported in patent US20190256509A1, “HISTONE DEMETHYLASE INHIBITORS” (CHRYSALIS, INC., priority 2016, published 2019).

The molecules below were run against T1, KDM5B enzyme (Homo sapiens, UniProt Q9UGL1) (assay: KDM5B HTRF (TR-FRET) demethylase inhibition assay). Settings: 1.2 nM KDM5B, 30 nM Biotin-H3K4Me3 1-21 substrate, 10 point dose-response.
T1 construct: Reaction Biology Corp (named for the assay, not expressly for the enzyme)
Assay type: biochemical
Protocol: Ten point dose-response curves for the compounds of Examples 1-135 were determined using a homogeneous time resolved fluorescence (HTRF) assay (Reaction Biology Corp, Malvern, Pa.). This assay combines fluorescence resonance energy transfer (FRET) with time resolve (TR) measurements (TR-FRET). The KDM5B α-ketoglutarate-dependent demethylase activity is calculated by measuring demethylation of a biotin labeled histone tri-methylated H3K4 substrate using an europium-cryptate (Eu)-labeled antibody donor specific for dimethylated histone H3K4 and a Streptavidin-XL665 acceptor that binds to the biotin group of substrate, and detecting FRET by exciting the reaction mixture at 320 nm and reading dual emissions at 615 nm and 665 nm.
Briefly, compounds disclosed herein were solubilized in DMSO and a series of 10, three-fold serial dilutions were made for each compound in 100% DMSO. The initial starting concentration for the serial dilutions of each compound was 10 μM or 100 μM. Control samples lacking compound, KDM5B enzyme or various reaction components also were prepared and processed in parallel with compound test samples.
An aliquot of each serial dilution of test compound was added to a 384 well plate (Corning Cat #3572) containing 1.2 nM KDM5B enzyme suspended in 50 mM Hepes, pH7.5, 50 mM NaCl, 0.01% Tween 20, 0.1% BSA, and 1% DMSO (final concentrations) in a 10 microliter reaction volume using a LABCYTE ECHO liquid handler. The samples were mixed, subjected to centrifugation and the plate was pre-incubated at room temperature for 15 minutes (min), to which 30 nM Biotin-H3K4Me3 1-21 substrate (Anaspec, Freemont Calif., Cat #64192), 20 μM Fe(II) and 20 μM α-ketoglutarate co-factors, and 100 μM Ascorbate were added to initiate the enzymatic reaction. The reaction mixture was incubated at room temperature for 45 minutes. A 10 μl aliquot of a detection mixture of Eu-labeled anti-histone H3K4Me2 antibody (CisBIO, Bedford Mass., Cat #610AXLB) and Streptavidin-XL665 (CisBIO, Bedford Mass., Cat #610 SAXLB) in 200 mM potassium fluoride and 10 mM EDTA was added and kinetic measurements were read at 5 minute intervals for a period of 30 minutes using an Envision Multiplate Reader (PerkinElmer Model 2102; excitation at 320 nm and emission reads at 615 nm and 665 nm). The IC50 value for each compound was determined from the 665/615 ratio obtained for each 10 point dose-response curve using GraphPad Prism 4 software with a sigmodial dose response.

T1 sequence (Q9UGL1 whole entry): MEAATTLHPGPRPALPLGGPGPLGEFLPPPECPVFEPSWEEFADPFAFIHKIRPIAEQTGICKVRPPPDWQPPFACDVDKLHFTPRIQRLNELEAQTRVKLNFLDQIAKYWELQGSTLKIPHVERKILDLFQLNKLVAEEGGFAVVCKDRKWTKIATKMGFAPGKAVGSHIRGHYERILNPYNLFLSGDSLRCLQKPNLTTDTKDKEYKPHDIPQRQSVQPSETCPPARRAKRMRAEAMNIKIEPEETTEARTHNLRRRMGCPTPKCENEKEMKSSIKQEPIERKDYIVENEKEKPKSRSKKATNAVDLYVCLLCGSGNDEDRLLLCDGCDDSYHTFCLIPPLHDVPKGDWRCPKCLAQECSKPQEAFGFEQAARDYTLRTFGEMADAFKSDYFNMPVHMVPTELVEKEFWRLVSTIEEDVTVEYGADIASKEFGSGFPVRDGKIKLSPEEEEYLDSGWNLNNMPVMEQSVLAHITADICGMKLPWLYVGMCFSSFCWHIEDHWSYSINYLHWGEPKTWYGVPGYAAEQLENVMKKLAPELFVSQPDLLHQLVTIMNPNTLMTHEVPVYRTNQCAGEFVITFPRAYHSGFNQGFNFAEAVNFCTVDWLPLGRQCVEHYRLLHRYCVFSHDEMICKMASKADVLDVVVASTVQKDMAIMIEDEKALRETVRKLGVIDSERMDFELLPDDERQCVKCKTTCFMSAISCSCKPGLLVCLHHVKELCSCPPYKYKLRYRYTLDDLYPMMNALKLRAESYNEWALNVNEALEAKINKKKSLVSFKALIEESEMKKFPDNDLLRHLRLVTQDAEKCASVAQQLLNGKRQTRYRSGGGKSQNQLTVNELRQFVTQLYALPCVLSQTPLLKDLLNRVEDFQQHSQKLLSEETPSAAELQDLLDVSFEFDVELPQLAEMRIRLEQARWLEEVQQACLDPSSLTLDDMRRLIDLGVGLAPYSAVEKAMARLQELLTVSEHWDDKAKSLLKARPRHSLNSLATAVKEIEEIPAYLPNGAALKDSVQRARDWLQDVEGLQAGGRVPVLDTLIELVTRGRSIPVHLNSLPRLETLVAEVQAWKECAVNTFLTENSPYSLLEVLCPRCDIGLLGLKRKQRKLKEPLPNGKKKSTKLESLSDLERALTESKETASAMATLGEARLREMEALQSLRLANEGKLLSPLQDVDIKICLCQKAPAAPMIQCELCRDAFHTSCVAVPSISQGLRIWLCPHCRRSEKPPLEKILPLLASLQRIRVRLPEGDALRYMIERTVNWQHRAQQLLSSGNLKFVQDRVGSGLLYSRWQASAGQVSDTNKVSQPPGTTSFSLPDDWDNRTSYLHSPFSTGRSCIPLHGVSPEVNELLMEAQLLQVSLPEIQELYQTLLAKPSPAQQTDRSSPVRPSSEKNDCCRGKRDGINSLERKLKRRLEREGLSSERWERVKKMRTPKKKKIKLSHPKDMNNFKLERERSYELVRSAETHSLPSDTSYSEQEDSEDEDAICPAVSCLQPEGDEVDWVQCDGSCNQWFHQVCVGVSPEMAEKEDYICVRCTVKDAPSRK

Row | IC50 [nM] | Compound
1 | > 1000 | Cc1nc2cc(C(O)c3ccccc3)ccn2c1C(=O)O (centres unmarked) [Example 101]
2 | > 1000 | CCOc1ccccc1CNc1ccc2nccn2c1C(=O)O [Example 40]
3 | > 1000 | COc1cc(Cl)ccc1CNc1ccc2ncc(C(=O)O)n2c1 [Example 118]
4 | > 1000 | O=C(O)c1c(NCc2cccc(C(F)(F)F)c2F)ccc2nccn12 [Example 16]
5 | > 1000 | O=C(O)c1c(NCc2cccc(OC(F)(F)F)c2)ccc2nccn12 [Example 89]
6 | > 1000 | Cc1ccc(F)c(CNc2ccc3nccn3c2C(=O)O)c1Cl [Example 38]
7 | > 1000 | CN(C)Cc1ccccc1CNc1ccc2nccn2c1C(=O)O [Example 131]
8 | > 1000 | O=C(O)c1cnc2cc(Oc3ccccc3)ccn12 [Example 104]
9 | ≤ 500 | CN1CCN(c2ccc(CNc3ccc4nccn4c3C(=O)O)cc2)CC1 [Example 21]
10 | > 1000 | O=C(O)c1c(NCc2ccccc2F)ccc2nccn12 [Example 85]
11 | > 1000 | Cc1ccc(CNc2ccc3nccn3c2C(=O)O)c(F)c1F [Example 33]
12 | > 1000 | Cc1cc(CNc2ccc3nccn3c2C(=O)O)ccc1F [Example 63]
13 | > 1000 | O=C(O)c1c(NCc2cc(C(F)(F)F)ccc2F)ccc2nccn12 [Example 43]
14 | > 1000 | O=C(O)c1c(NCc2cc(F)cc(C(F)(F)F)c2)ccc2nccn12 [Example 93]
15 | > 1000 | O=C(O)c1c(NCc2cc(F)cc(F)c2)ccc2nccn12 [Example 73]
16 | > 1000 | Cc1ccc(F)c(CNc2ccc3nccn3c2C(=O)O)c1F [Example 35]
17 | > 1000 | Cc1ccc(F)cc1CNc1ccc2nccn2c1C(=O)O [Example 68]
18 | > 1000 | O=C(O)c1c(NCc2ccc(Cl)c(F)c2)ccc2nccn12 [Example 58]
19 | > 1000 | COc1cc(Cl)ccc1CNc1ccc2nccn2c1-c1nn[nH]n1 [Example 111]
20 | ≤ 500 | O=C(O)c1c(NCc2ccc(F)cc2Cl)ccc2nccn12 [Example 13]
21 | > 1000 | COc1cc(C)ccc1-c1ccc2ncc(C(=O)O)n2c1 [Example 116]

Row | IC50 [nM] | Compound
22 | > 1000 | O=C(O)c1c(NCc2cc(C(F)(F)F)ccc2Cl)ccc2nccn12 [Example 5]
23 | 500 to 1000 | CC(=O)N(C)c1cccc(CNc2ccc3nccn3c2C(=O)O)c1 [Example 100]
24 | > 1000 | Cc1ccc(CNc2ccc3nccn3c2C(=O)O)cc1F [Example 49]
25 | ≤ 500 | O=C(O)c1c(NCc2cc(F)ccc2C(F)(F)F)ccc2nccn12 [Example 67]
26 | 500 to 1000 | Cc1cc(F)ccc1CNc1ccc2nccn2c1C(=O)O [Example 61]
27 | > 1000 | O=C(O)c1c(NCc2ccc(-c3cccs3)cc2)ccc2nccn12 [Example 53]
28 | ≤ 500 | COc1cc(Cl)ccc1CNc1ccc2nccn2c1C(=O)O [Example 8]
29 | 500 to 1000 | O=C(O)c1c(NCc2cccc(-c3cccnc3)c2)ccc2nccn12 [Example 126]
30 | > 1000 | O=C(O)c1c(NCc2ccc(OC(F)(F)F)cc2)ccc2nccn12 [Example 95]
31 | 500 to 1000 | O=C(O)c1c(NCc2ccc(Cl)c(C(F)(F)F)c2)ccc2nccn12 [Example 3]
32 | ≤ 500 | Cn1nccc1-c1cccc(CNc2ccc3nccn3c2C(=O)O)c1 [Example 127]
33 | > 1000 | O=C(O)c1c(NCc2ccc(C(F)(F)F)c(F)c2)ccc2nccn12 [Example 48]
34 | ≤ 500 | COc1ccc(CNc2ccc3nccn3c2C(=O)O)c(OC)c1 [Example 1]
35 | ≤ 500 | O=C(O)c1c(NCc2ccc(F)c(F)c2)ccc2nccn12 [Example 45]
36 | > 1000 | O=C(O)c1c(NCc2ccc(N3CCOCC3)cc2)ccc2nccn12 [Example 64]
37 | > 1000 | O=C(O)c1c(NCc2c(F)cccc2Cl)ccc2nccn12 [Example 39]
38 | ≤ 500 | CS(=O)(=O)c1cccc(CNc2ccc3nccn3c2C(=O)O)c1 [Example 88]
39 | > 1000 | COc1cc(Cl)ccc1COc1cc(C(=O)O)n2ccnc2c1 [Example 123]
40 | > 1000 | COc1ccc(Cl)cc1CNc1ccc2ncc(C(=O)O)n2c1 [Example 112]
41 | > 1000 | Cc1ccc(CNc2ccc3nccn3c2C(=O)O)c(F)c1 [Example 42]
42 | > 1000 | O=C(O)c1c(NCc2ccc(Cl)cc2F)ccc2nccn12 [Example 56]

Row | IC50 [nM] | Compound
43 | 500 to 1000 | COc1cc(CN2CCC(NCCc3ccccc3)CC2)ccc1CNc1ccc2nccn2c1C(=O)O [Example 130]
44 | > 1000 | O=C(O)c1c(NCc2cccc(OC(F)F)c2)ccc2nccn12 [Example 19]
45 | 500 to 1000 | O=C(O)c1c(NCc2ccccc2-c2ccccc2)ccc2nccn12 [Example 44]
46 | > 1000 | O=C(O)c1c(NCc2ccc(Oc3ccc(F)cc3)cc2)ccc2nccn12 [Example 54]
47 | ≤ 500 | COc1cc(Cl)ccc1OCc1cc(C(=O)O)n2ccnc2c1 [Example 129]
48 | > 1000 | O=C(O)c1c(NCc2c(F)cccc2F)ccc2nccn12 [Example 36]
49 | 500 to 1000 | COc1ccc(CNc2ccc3nccn3c2C(=O)O)cc1Cl [Example 47]
50 | > 1000 | COc1cc(Cl)ccc1COc1ccc2nccn2c1C(=O)O [Example 120]
51 | 500 to 1000 | O=C(O)c1c(NCc2ccc3c(c2)OC(F)(F)O3)ccc2nccn12 [Example 77]
52 | > 1000 | CN(C)c1ccc(CNc2ccc3nccn3c2C(=O)O)cc1 [Example 96]
53 | ≤ 500 | CN1CCN(c2ccccc2CNc2ccc3nccn3c2C(=O)O)CC1 [Example 32]
54 | > 1000 | O=C(O)c1cnc2cc(C(O)c3ccccc3)ccn12 (centres unmarked) [Example 102]
55 | > 1000 | O=C(O)c1c(NCc2ccc3c(c2)OCCO3)ccc2nccn12 [Example 80]
56 | ≤ 500 | O=C(O)c1c(NCc2ccc(F)cc2)ccc2nccn12 [Example 23]
57 | > 1000 | O=C(O)c1c(NCc2cc(Cl)ccc2F)ccc2nccn12 [Example 66]
58 | 500 to 1000 | O=C(O)c1c(NCc2ccc3occc3c2)ccc2nccn12 [Example 29]
59 | > 1000 | Cc1c(F)cccc1CNc1ccc2nccn2c1C(=O)O [Example 20]
60 | > 1000 | COc1cc(CNc2ccc3nccn3c2C(=O)O)ccc1O [Example 75]
61 | > 1000 | O=C(O)c1c(NCc2ccccc2Cl)ccc2nccn12 [Example 91]
62 | > 1000 | O=C(O)c1c(NCc2c(Cl)cccc2Cl)ccc2nccn12 [Example 10]
63 | > 1000 | CN(Cc1ccc(F)cc1)Cc1ccc(Oc2cc(C(=O)O)n3ccnc3c2)cc1 [Example 134]

Row | IC50 [nM] | Compound
64 | ≤ 500 | COc1cccc(CNc2ccc3nccn3c2C(=O)O)c1 [Example 94]
65 | > 1000 | O=C(O)c1c(NCc2cccc3ccccc23)ccc2nccn12 [Example 31]
66 | > 1000 | O=C(O)c1c(NCc2ccc3sccc3c2)ccc2nccn12 [Example 30]
67 | > 1000 | O=C(O)c1c(NCc2cccc(F)c2)ccc2nccn12 [Example 50]
68 | > 1000 | COc1ccc(Cl)cc1CNc1cc(C(=O)O)n2ccnc2c1 [Example 117]
69 | > 1000 | COc1c(F)cc(CNc2ccc3nccn3c2C(=O)O)cc1F [Example 46]
70 | 500 to 1000 | O=C(O)c1c(NCc2ccc(C(F)(F)F)cc2)ccc2nccn12 [Example 55]
71 | 500 to 1000 | O=C(O)c1c(NCc2cc(F)ccc2F)ccc2nccn12 [Example 82]
72 | > 1000 | O=C(O)c1c(NCc2ccc(Cl)cc2)ccc2nccn12 [Example 74]
73 | ≤ 500 | COc1ccc(CNc2ccc3nccn3c2C(=O)O)cc1O [Example 51]
74 | > 1000 | O=C(O)c1cc(OCCN2CCC(c3cc(Cl)cc(Cl)c3)CC2)cc2nccn12 [Example 132]
75 | > 1000 | COc1ccc(CNc2ccc3nccn3c2C(=O)O)cc1 [Example 24]
76 | 500 to 1000 | COc1cc(CNc2ccc3nccn3c2C(=O)O)ccc1F [Example 97]
77 | ≤ 500 | O=C(O)c1c(NCc2ccc(F)cc2C(F)(F)F)ccc2nccn12 [Example 60]
78 | > 1000 | Cc1ccc(C(F)(F)F)c(CNc2ccc3nccn3c2C(=O)O)c1 [Example 69]
79 | > 1000 | N#Cc1cccc(CNc2ccc3nccn3c2C(=O)O)c1 [Example 128]
80 | > 1000 | COc1ccc(-c2cccc(CNc3ccc4nccn4c3C(=O)O)c2)cc1 [Example 125]
81 | ≤ 500 | O=C(O)c1c(NCc2ccccc2-n2cccn2)ccc2nccn12 [Example 83]
82 | > 1000 | O=C(O)c1c(NCc2ccc(N3CCCCC3)cc2)ccc2nccn12 [Example 27]
83 | ≤ 500 | O=C(O)c1cc(-c2cn(Cc3ccc(Cl)cc3)cn2)cc2nccn12 [Example 113]
